Measured values reported in US10093628B2, “Competitive PPAR-gamma antagonists” (FRAUNHOFER-GESELLSCHAFT ZUR FÖRDERUNG DER ANGEWANDTEN …, priority 2014, dated 2018).
pIC50: −log10 of the molar value.

How the values were obtained:
PPARγ [1] = molecular target: T1, PPARγ (Homo sapiens, UniProt P37231); experiment: PPARγ-dependent transactivation assay in HEK293T cells; type: cell-based; design: the vector pFA-PPARγ-LBD-GAL4-DBD encoding the hybrid protein PPARγ-LBD-GAL4-DBD; expressed in transfected cells; host or cells: HEK293T cells; (transient transfection); conditions: for antagonistic effects on the time-course of the response to agonist stimulation: 10 μM compound, 1 μM rosiglitazone; for inhibition of the rosiglitazone-induced transactivation of PPARγ: 1 or 10 μM compound with 0.1-10 μM rosiglitazone
T1 sequence (P37231 238-503 limits assumed): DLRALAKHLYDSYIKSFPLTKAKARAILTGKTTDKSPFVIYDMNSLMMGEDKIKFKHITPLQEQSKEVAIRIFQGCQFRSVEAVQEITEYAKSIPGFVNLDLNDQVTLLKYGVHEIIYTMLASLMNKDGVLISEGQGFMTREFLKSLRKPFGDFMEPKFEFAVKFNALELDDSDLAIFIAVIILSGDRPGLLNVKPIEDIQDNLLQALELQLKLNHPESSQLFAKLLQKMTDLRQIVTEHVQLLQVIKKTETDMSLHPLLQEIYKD
Description: For the PPARγ-dependent transactivation assay, 1×10^4 HEK293T cells per well were seeded in 96-well plates and cultured overnight as described above to allow attachment of the HEK293T cells. The next day, the HEK293T cells were transiently transfected using the JetPRIME™ transfection reagent (PEQLAB Biotechnologie GmbH, Erlangen, Germany), as described by the manufacturer, with 0.01 μg per well pFA-PPARγ-LBD-GAL4-DBD, kindly provided by Prof. Dr. Manfred Schubert-Zsilavecz (Institute of Pharmaceutical Chemistry, Department of Biochemistry, Chemistry and Pharmacy, Goethe-University Frankfurt am Main, Germany), 0.09 μg per well pFR-Luc (Stratagene, La Jolla, USA) and 0.0005 μg per well pRL-CMV (Promega GmbH, Mannheim, Germany). After 4 h, the transfection medium was replaced and the HEK293T cells were cultured in fresh growth medium for another 24 h. For the transient transfection of 1×10^6 HuT-78 cells and Jurkat T cells per well, the SuperFect™ transfection reagent (QIAGEN GmbH, Hilden, Germany) was used as described by the producer with 0.2 μg per well pFA-PPARγ-LBD-GAL4-DBD, 0.8 μg per well pFR-Luc and 0.05 μg per well pRL-CMV. After 24 h, 1 ml fresh growth medium was added and the cells were cultured for another 48 h. The PPARγ-dependent transactivation assay in HEK293T cells using a 96-well plate format was performed in quadruple and in HuT-78 cells and Jurkat T cells using a 12-well plate format in triplicate.
(§1) The PPARγ-dependent transactivation assay is based on the vector pFA-PPARγ-LBD-GAL4-DBD encoding the hybrid protein PPARγ-LBD-GAL4-DBD and the reporter vector pFR-Luc, carrying a GAL4-responsive element in front of the Firefly luciferase gene. These two vectors were co-transfected, as described above, in combination with the control vector pRL-CMV, encoding Renilla luciferase, to normalize Firefly luciferase activity for transfection efficiency. […] Transactivation was analysed using a 96-well plate format in a Mithras LB940 multimode reader (Berthold Technologies, Bad Wildbad, Germany). The IC50 value for MTTB was determined by fitting the data to a sigmoidal dose-response curve using the GraphPad Software Prism (La Jolla, USA).
Firefly luciferase luminescence values and control Renilla luciferase luminescence values were determined in each sample. The ratios of Firefly to Renilla luciferase luminescence were used to normalize luciferase activity values.

HEK293T cells [2] = experiment: Cell viability, MTT assay, HEK293T cells; type: cell-based, human; conditions: 24 h
Description: (§2) HuT-78 cells, Jurkat T cells and HEK293T cells, were seeded in 96-well plates at a density of 5×10^4 cells per well and cultured overnight as described above to allow attachment of the HEK293T cells. […] As control, DMSO alone was used. After 24 h stimulation, 3-(4, 5-dimethylthiazol-2-yl)-2, 5-diphenyltetrazolium bromide (MTT) solution (5 mg ml-1 in phosphate buffered saline (PBS)) was added and the cells were incubated for two more hours at 37° C. (Mosmann, 1983). Afterwards, the cells were lysed with MTT lysis buffer. Following cell lysis, cell viability was measured at an absorbance of 560 nm in a Mithras LB940 multimode reader. The cell viability studies using a 96-well plate format were performed in octet.

HuT-78 cells [3] = experiment: Cell viability, MTT assay, HuT-78 cells; type: cell-based, human
Description: as §2

Jurkat T cells [4] = experiment: Cell viability, MTT assay, Jurkat T cells; type: cell-based
Description: as §2

HEK293T cells [5] = experiment: Intracellular accumulation by LC-MS/MS, HEK293T cells; type: in vitro ADME, human
Excerpt: (§3) Accumulation was expressed as a percentage of the ratio of intracellular to extracellular concentration (I/E).

HuT-78 cells [6] = experiment: Intracellular accumulation by LC-MS/MS, HuT-78 cells; type: in vitro ADME, human
Excerpt: as §3

Jurkat T cells [7] = experiment: Intracellular accumulation by LC-MS/MS, Jurkat T cells; type: in vitro ADME
Excerpt: as §3

PPARγ [8] = molecular target: T1, PPARγ; experiment: PPARγ-dependent transactivation assay in Jurkat T cells; type: cell-based; design: the vector pFA-PPARγ-LBD-GAL4-DBD encoding the hybrid protein PPARγ-LBD-GAL4-DBD; expressed in transfected cells; host or cells: HEK293T cells; Jurkat T cells (transient transfection); conditions: for inhibition of the rosiglitazone-induced transactivation of PPARγ / agonistic effects (transactivation of PPARγ by the compound alone): 24 h; for inhibition of the rosiglitazone-induced transactivation of PPARγ: 1 or 10 μM compound with 0.1-10 μM rosiglitazone
Description: as §1, with “Dr. […] Schubert-Zsilavecz (Institute of Pharmaceutical Chemistry, Department of Biochemistry, Chemistry and Pharmacy, Goethe-University Frankfurt am Main, Germany), 0.09 μg per well pFR-Luc (Stratagene, La Jolla, USA) and 0.0005 μg per well pRL-CMV (Promega GmbH, Mannheim, Germany). After 4 h, the transfection medium was replaced and the HEK293T cells were cultured in fresh growth medium for another 24 h. […] After 24 h, 1 ml fresh growth medium was added and the cells were cultured for another 48 h. The PPARγ-dependent transactivation assay in HEK293T cells using a 96-well plate format was performed in quadruple and in HuT-78 cells and Jurkat T cells using a 12-well plate format in triplicate. The PPARγ-dependent” for “The PPARγ-dependent”

[9] = HEK293T cells, 24 h, compound alone

## CC(C)C[C@H](NC(=O)OCC1c2ccccc2-c2ccccc21)C(=O)O [FMOC-L-leucine, N-(9-fluorenylmethoxycarbonyl)-L-leucine]
PPARγ [1]; HEK293T cells
  antagonistic effects on the time-course of the response to agonist stimulation: non-existent antagonistic effects
PPARγ [1]; [9]
  agonistic effects (transactivation of PPARγ by the compound alone): no agonistic effects

## O=C(Nc1ccccc1)c1cc([N+](=O)[O-])ccc1Cl [GW9662, 2-chloro-5-nitrobenzanilide]
HEK293T cells [2]
  concentrations without cytotoxic effects / loss of viability: ≤ 30 µM
HuT-78 cells [3]; MTT, 24 h
  concentrations at which clearly cytotoxic: above 20 μM
Jurkat T cells [4]; MTT, 24 h
  concentrations at which clearly cytotoxic: > 30 µM
HEK293T cells [5]; 10 μM
  intracellular accumulation, fold lower compared to MTTB: 10 fold
HuT-78 cells [6]; 10 μM
  intracellular accumulation, fold less than that of MTTB: about 100 fold
Jurkat T cells [7]; 10 μM
  intracellular accumulation, fold less than that of MTTB: about 100 fold
PPARγ [1]; HEK293T cells
  antagonistic effects on the time-course of the response to agonist stimulation: inhibited the time-course of the response to agonist
PPARγ [1]; HEK293T cells, 24 h
  inhibition of the rosiglitazone-induced transactivation of PPARγ: full antagonism
PPARγ [1]; [9]
  agonistic effects (transactivation of PPARγ by the compound alone): surprisingly high agonistic effects
PPARγ [8]
  inhibition of the rosiglitazone-induced transactivation of PPARγ: full antagonism
PPARγ [8]; compound alone
  agonistic effects (transactivation of PPARγ by the compound alone): surprisingly high agonistic effects
PPARγ [8]; compound alone, dose-independent
  PPARγ transactivation by the compound alone: approximately 3 fold

## O=C1NC(=O)C(Cc2ccc3cc(OCc4ccccc4F)ccc3c2)S1 (centres unmarked) [MCC-555, netoglitazone]
PPARγ [1]; HEK293T cells
  antagonistic effects on the time-course of the response to agonist stimulation: non-existent antagonistic effects
PPARγ [1]; [9]
  concentrations that transactivated PPARγ: above 1 μM

## CCCC/C(=C\c1cc(OCc2ccc3nc(C(F)(F)F)cc(OC)c3c2)ccc1OCc1ccc(C(F)(F)F)cc1)C(=O)O [MTTB, (E)-2-(5-((4-methoxy-2-(trifluoromethyl)quinolin-6-yl)methoxy)-2-((4-(trifluoromethyl)benzyl)oxy)-benzylidene) hexanoic acid]
HEK293T cells [2]
  concentrations without cytotoxic effects / loss of viability: up to 10 μM
HuT-78 cells [3]
  cytotoxicity in contrast to GW9662: less cytotoxicity
HuT-78 cells [3]; MTT, 24 h
  concentrations without cytotoxic effects: up to 10 μM
Jurkat T cells [4]
  cytotoxicity in contrast to GW9662: less cytotoxicity
Jurkat T cells [4]; MTT, 24 h
  concentrations without cytotoxic effects: up to 10 μM
HEK293T cells [5]
  uptake, fold higher than of GW9662: 10 fold
HEK293T cells [5]; 10 μM, after 24 h
  intracellular accumulation (intracellular as percentage of extracellular concentration): approximately 25%
HuT-78 cells [6]
  intracellular accumulation, fold higher as compared to GW9662: approximately 100 fold
HuT-78 cells [6]; 10 μM, after 24 h
  intracellular accumulation (intracellular as percentage of extracellular concentration): approximately 10%
Jurkat T cells [7]
  intracellular accumulation, fold higher as compared to GW9662: approximately 100 fold
Jurkat T cells [7]; 10 μM, after 24 h
  intracellular accumulation (intracellular as percentage of extracellular concentration): approximately 10%
PPARγ [1]
  pIC50: 5.37
PPARγ [1]; HEK293T cells, 24 h
  inhibition of the rosiglitazone-induced transactivation of PPARγ: dose-dependent inhibition
PPARγ [1]; [9]
  agonistic effects (transactivation of PPARγ by the compound alone): no agonistic effect
PPARγ [8]
  inhibition of the rosiglitazone-induced transactivation of PPARγ: dose-dependent inhibition
PPARγ [8]; compound alone
  agonistic effects (transactivation of PPARγ by the compound alone): no agonistic effect
